Measured values reported in patent publication US20080075788A1, “DIAMMONIUM PHOSPHATE AND OTHER AMMONIUM SALTS AND THEIR USE IN PREVENTING CLOTTING” (priority 2006, published 2008).
Where two headings read alike, the source gives them in different places.

Experiments:
[1] = tested on: whole sheep blood; details: liquid component added to blood, versus control
Method: (§1) Coagulation time of fresh whole blood can be determined with the Lee-White test by visually observing clot formation. Activation of the intrinsic coagulation pathway can be determined by measuring the activated partial thromboplastin time (APTT) as for example, shown in the FIGURE. In this test, the time to formation of a fibrin clot in re-calcified citrated plasma is measured using a coagulation analyzer instrument.

[2] = tested on: human plasma; details: for effect on the clotting time of human plasma: APTT test; for APTT Average: average of subjects
Method: as §1
Clotting times of plasma samples were measured using the Amelung KC 4 A™ micro coagulation analyzer (Sigma Diagnostics, Germany). A cuvette was placed into a rotating well of the analyzer and a small stainless steel ball was dispensed into the cuvette. 100 μL of Pathromtin SL reagent were dispensed into the cuvette and then 100 μL of human plasma were added. For trials with the solution, 10 μL of water or of a solution dilution were added. After 2 minutes of incubation, 100 μL of CaCl2 were dispensed into each cuvette. The analyzer timer was started immediately and clotting time was recorded when the timer stopped.
On each day, control plasma N (normal) and control plasma P (abnormal/prolonged) were tested for quality control. At least two identical samples (duplicates) were tested simultaneously for each trial. The means and percent differences between duplicates were calculated. If the difference between duplicates was twenty percent or less, that trial's data was used for further analysis.

[3] = tested on: whole human blood
[4] = listed as diammonium phosphate solution

N.N.O=P(O)(O)O [Sample A liquid, diammonium hydrogen-phosphate]
effect on the Lee-White clotting time of whole sheep blood ([1]; listed as Sample A liquid component): prolonged
effect on the Lee-White clotting time of whole sheep blood [1, 4]: delay and/or prevent clotting
effect on the clotting time of human plasma ([2]; listed as diammonium hydrogen-phosphate solution): prolongs the clotting time of human plasma
effect on the clotting time of human plasma [2, 4]: delay and/or prevent clotting
APTT Average ([2]; NH4 Conc. 10 mM in the 310 μL total volume): 42.7 s
Subject APTT ([2]; NH4 Conc. 10 mM in the 310 μL total volume, subject 1): 49.8 s
Subject APTT ([2]; NH4 Conc. 10 mM in the 310 μL total volume, subject 2): 36.5 s
Subject APTT ([2]; NH4 Conc. 10 mM in the 310 μL total volume, subject 3): 42.6 s
Subject APTT ([2]; NH4 Conc. 10 mM in the 310 μL total volume, subject 4): 42.9 s
Subject APTT ([2]; NH4 Conc. 10 mM in the 310 μL total volume, subject 5): 47.9 s
Subject APTT ([2]; NH4 Conc. 10 mM in the 310 μL total volume, subject 6): 39.0 s
Subject APTT ([2]; NH4 Conc. 10 mM in the 310 μL total volume, subject 7): 32.5 s
Subject APTT ([2]; NH4 Conc. 10 mM in the 310 μL total volume, subject 8): 50.9 s
APTT Average ([2]; NH4 Conc. 20 mM in the 310 μL total volume): 50.8 s
Subject APTT ([2]; NH4 Conc. 20 mM in the 310 μL total volume, subject 1): 64.5 s
Subject APTT ([2]; NH4 Conc. 20 mM in the 310 μL total volume, subject 2): 46.3 s
Subject APTT ([2]; NH4 Conc. 20 mM in the 310 μL total volume, subject 4): 47.3 s
Subject APTT ([2]; NH4 Conc. 20 mM in the 310 μL total volume, subject 5): 62.2 s
Subject APTT ([2]; NH4 Conc. 20 mM in the 310 μL total volume, subject 6): 38.0 s
Subject APTT ([2]; NH4 Conc. 20 mM in the 310 μL total volume, subject 7): 37.7 s
Subject APTT ([2]; NH4 Conc. 20 mM in the 310 μL total volume, subject 8): 59.7 s
APTT Average ([2]; NH4 Conc. 30 mM in the 310 μL total volume): 67.6 s
Subject APTT ([2]; NH4 Conc. 30 mM in the 310 μL total volume, subject 1): 79.8 s
Subject APTT ([2]; NH4 Conc. 30 mM in the 310 μL total volume, subject 2): 52.8 s
Subject APTT ([2]; NH4 Conc. 30 mM in the 310 μL total volume, subject 3): 64.2 s
Subject APTT ([2]; NH4 Conc. 30 mM in the 310 μL total volume, subject 4): 64.6 s
Subject APTT ([2]; NH4 Conc. 30 mM in the 310 μL total volume, subject 5): 86.9 s
Subject APTT ([2]; NH4 Conc. 30 mM in the 310 μL total volume, subject 6): 58.5 s
Subject APTT ([2]; NH4 Conc. 30 mM in the 310 μL total volume, subject 7): 57.5 s
Subject APTT ([2]; NH4 Conc. 30 mM in the 310 μL total volume, subject 8): 76.4 s
APTT Average ([2]; NH4 Conc. 40 mM in the 310 μL total volume): 185.2 s
Subject APTT ([2]; NH4 Conc. 40 mM in the 310 μL total volume, subject 1): 236.5 s
Subject APTT ([2]; NH4 Conc. 40 mM in the 310 μL total volume, subject 4): 154.4 s
Subject APTT ([2]; NH4 Conc. 40 mM in the 310 μL total volume, subject 5): 186.2 s
Subject APTT ([2]; NH4 Conc. 40 mM in the 310 μL total volume, subject 6): 111.9 s
Subject APTT ([2]; NH4 Conc. 40 mM in the 310 μL total volume, subject 7): 166.2 s
Subject APTT ([2]; NH4 Conc. 40 mM in the 310 μL total volume, subject 8): 255.8 s
effect on clotting in whole human blood [3]: delay and/or prevent clotting
